Experimental data: patent US20190330197A1, “SUBSTITUTED NAPHTHALENE DIIMIDES AND THEIR USE” (UCL Business PLC, priority 2015, published 2019)

Legend:
[1] = tested on: human telomeric (F21T) G-quadruplex DNA; assay: FRET quadruplex stabilisation assay, F21T; format: binding; conditions: compound at 1 μM, 60 mM potassium cacodylate buffer pH 7.4
Source text: (§1) The ability of the naphthalene diimide compounds to stabilize quadruplex DNA sequences was investigated using a fluorescence resonance energy transfer (FRET) assay modified to be used as a high-throughput screen in a 96-well format. Several quadruplex sequences were studied (including the human telomeric G-quadruplex DNA sequence 5′-FAM-d(GGG[TTAGGG]3)-TAMRA-3′ and the duplex sequence 5′-FAM-d[…]-HEG-[…]-TAMRA-3′ (HEG linker: [(—CH2—CH2—O—)6.
(§2) The labelled oligonucleotides have attached to them the donor fluorophore FAM: 6-carboxyfluorescein and the acceptor fluorophore TAMRA: 6-carboxytetramethylrhodamine. The FRET probe sequences were diluted from stock to the correct concentration (400 nM) in a 60 mM potassium cacodylate buffer (pH 7.4) and then annealed by heating to 85° C. for 10 min, followed by cooling to room temperature in the heating block. The compound was stored as a 10 mM stock solution in DMSO; final solutions (at 2× concentration) were prepared using 10 mM HCl in the initial 1:10 dilution, after which 60 mM potassium cacodylate buffer (pH 7.4) was used in all subsequent steps. The maximum HCl concentration in the reaction volume (at a ligand concentration of 20 μM) is thus 200 μM, well within the range of the buffer used. Relevant controls were also performed to check for interference with the assay. 96-Well plates (MJ Research, Waltham, Mass.) were prepared by aliquoting 50 μl of the annealed DNA into each well, followed by 50 μl of the compound solutions. Measurements were made on a DNA Engine Opticon (MJ Research) with excitation at 450-495 nm and detection at 515-545 nm. Fluorescence readings were taken at intervals of 0.5° C. in the range 30-100° C., with a constant temperature being maintained for 30 s prior to each reading to ensure a stable value. Final analysis of the data was carried out using a script written in the program Origin 7.0 (OriginLab Corp., Northampton, Mass.). The advanced curve-fitting function in Origin 7.0 was used for calculation of ΔTm values. All determinations were performed in triplicate or better. Esds in ΔTm are ±0.1° C.

[2] = tested on: Mia-PaCa2 (pancreatic cancer) cells; assay: SRB growth inhibition, MiaPaCa2; format: cell-based, human; conditions: 96 hr, SRB assay; read-out: short-term 96 hr IC50 MiaPaCa2
Protocol: (§3) Human cancer cell lines and the somatic human cell line WI-38 (lung fibroblast) were purchased from the American Type Culture Collection. Cell lines were maintained in appropriate medium supplemented with 10% foetal bovine serum (Invitrogen, UK), 2 mM L-glutamine (Invitrogen, Netherlands), and other components as specified by the suppliers. Cell lines were maintained at 37° C., 5% CO2 and routinely passaged. Drugs were dissolved in DMSO and filtered through 0.22 μm pore-size filter units before addition to cell line appropriate media. Cellular growth inhibition was measured using the sulforhodamine B (SRB) assay in 96 well plates. Fifty percent inhibitory concentrations (IC50) were determined by taking the mean absorbance at 540 nm for each drug concentration expressed as a percentage of the absorbance of untreated control wells.

[3] = tested on: Kras21 sequence from the promoter region of the kras gene; assay: FRET quadruplex stabilisation assay, Kras21; format: binding; conditions: compound at 1 μM, 60 mM potassium cacodylate buffer pH 7.4
Source text: as §1, §2

[4] = tested on: Hsp90A sequence from the HSP90 promoter; assay: FRET quadruplex stabilisation assay, Hsp90A; format: binding; conditions: compound at 1 μM, 60 mM potassium cacodylate buffer pH 7.4
Source text: as §1, §2

[5] = tested on: Kras32 sequence from the promoter region of the kras gene; assay: FRET quadruplex stabilisation assay, Kras32; format: binding; conditions: compound at 1 μM, 60 mM potassium cacodylate buffer pH 7.4
Source text: as §1, §2

MCF7 (breast) cells = assay: SRB growth inhibition, MCF7; format: cell-based, human; conditions: 96 hr, SRB assay; read-out: short-term 96 hr IC50 MCF7
Protocol: as §3

[6] = tested on: Panc1 (pancreatic cancer) cells; assay: SRB growth inhibition, Panc1; format: cell-based, human; conditions: 96 hr, SRB assay; read-out: short-term 96 hr IC50 Panc1
Protocol: as §3

[7] = tested on: WI38 (lung fibroblast) cells; assay: SRB growth inhibition, WI38; format: cell-based, human; conditions: 96 hr, SRB assay; read-out: short-term 96 hr IC50 WI38
Protocol: as §3

[8] = tested on: Hsp90B sequence from the HSP90 promoter; assay: FRET quadruplex stabilisation assay, Hsp90B; format: binding; conditions: compound at 1 μM, 60 mM potassium cacodylate buffer pH 7.4
Source text: as §1, §2

[9] = tested on: Bcl-2 sequence from the promoter region of the bcl-2 gene; assay: FRET quadruplex stabilisation assay, Bcl-2; format: binding; conditions: compound at 1 μM, 60 mM potassium cacodylate buffer pH 7.4
Source text: as §1, §2

[10] = tested on: Tloop (representing duplex DNA); assay: FRET assay, Tloop duplex DNA; format: binding; conditions: compound at 1 μM, 60 mM potassium cacodylate buffer pH 7.4
Source text: as §1, §2

[11] = tested on: ALT (Alternative Lengthening of Telomeres) cell line; assay: SRB growth inhibition, ALT; format: cell-based, human; conditions: 96 hr, SRB assay; read-out: short-term 96 hr IC50 ALT
Protocol: as §3

A549 (lung cancer) cells = assay: SRB growth inhibition, A549; format: cell-based, human; conditions: 96 hr, SRB assay; read-out: short-term 96 hr IC50 A549
Protocol: as §3

Structure (SMILES)	ΔTm F21T [1] [°C]	IC50 [2] [nM]	ΔTm Kras21 [3] [°C]	ΔTm Hsp90A [4] [°C]	ΔTm Kras32 [5] [°C]	IC50 (MCF7 (breast) cells) [nM]	IC50 [6] [nM]	IC50 [7] [nM]	ΔTm Hsp90B [8] [°C]	ΔTm Bcl-2 [9] [°C]	ΔTm Tloop [10] [°C]	IC50 [11] [nM]	IC50 (A549 (lung cancer) cells) [nM]
O=C1c2ccc3c4c(c(NCCN5CCOCC5)cc(c24)C(=O)N1CCCN1CCOCC1)C(=O)N(CCCN1CCOCC1)C3=O [Compound 4g, 4-((2-morpholinoethyl)amino)-2,7-bis(3-morpholinopropyl)benzo[Imn][3,8]phenanthroline-1,3,6,8(2H,7H)-tetraone]	6.0	206	2.4	11.0	1.5	> 25000	220	17600	9.4	5.8	1.5	10900	2180
O=C1c2ccc3c4c(c(NCC5CCCO5)cc(c24)C(=O)N1CCCN1CCOCC1)C(=O)N(CCCN1CCOCC1)C3=O (centres unmarked) [Compound 4h, 4-((tetrahydrofurylmethyl)amino)-2,7-bis(3-morpholinopropyl) benzo[Imn][3,8]phenanthroline-1,3,6,8(2H,7H)-tetraone]	1.4	139	3.4	3.9	1.2	1030	808	1880	6.8	4.2	0	710	146
CCN(CC)CCNc1cc2c3c(ccc4c3c1C(=O)N(CCCN1CCOCC1)C4=O)C(=O)N(CCCN1CCOCC1)C2=O [Compound 4i, 4-((2-(diethylamino)ethyl)amino)-2,7-bis(3-morpholinopropyl)benzo[Imn][3,8]phenanthroline-1,3,6,8(2H,7H)-tetraone]	<2	1080	0.7	2.7	0.2	3330	909	5530	4.5	2.4	0	2670	825
O=C1c2ccc3c4c(c(NCCc5ccc(O)cc5)cc(c24)C(=O)N1CCCN1CCOCC1)C(=O)N(CCCN1CCOCC1)C3=O [Compound 4j, 4-((4-hydroxyphenethyl)amino)-2,7-bis(3-morpholinopropyl)benzo[Imn][3,8]phenanthroline-1,3,6,8(2H,7H)-tetraone]	9	59	6.1	15.7	3.0	1540	163	1650	13.8	10.0	0.1	451	92
CN1CCN(CCCNc2cc3c4c(c(NCCCN5CCN(C)CC5)cc5c4c2C(=O)N(CCCN2CCOCC2)C5=O)C(=O)N(CCCN2CCOCC2)C3=O)CC1 [MM41, 4,9-bis((3-(4-methylpiperazine-1-yl)-propyl)amino)-2,7-bis(3-morpholinopropyl)benzo[Imn][3,8]phenanthroline-1,3,6,8(2H,7H)-tetraone, reference compound]	26.6	11	22.5	33.1	19.8	70	3	230	28.6	26.4	4.9	63	19
